Assay results taken from PubChem BioAssay (NCI).
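Tested at 5 concentrations; 48 h exposure; 96-well plates; endpoints linearly interpolated, else capped at highest concentration. GI50 is the concentration that inhibits growth by half. TGI: concentration producing complete growth inhibition.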

Key:
Test in all cases: NCI tumour cell line growth inhibition, 48 h
SF-539 CNS = tested on: SF-539 CNS
MOLT-4 leukemia = tested on: MOLT-4 leukemia
UO-31 renal = tested on: UO-31 renal
EKVX NSCLC = tested on: EKVX NSCLC
NCI-H460 lung = tested on: NCI-H460 lung
ACHN renal = tested on: ACHN renal
LOX IMVI melanoma = tested on: LOX IMVI melanoma
786-0 renal = tested on: 786-0 renal
M14 melanoma = tested on: M14 melanoma
DU-145 prostate = tested on: DU-145 prostate
KM12 colon = tested on: KM12 colon
MCF7 breast = tested on: MCF7 breast
HOP-92 NSCLC = tested on: HOP-92 NSCLC
HL-60(TB) leukemia = tested on: HL-60(TB) leukemia
OVCAR-3 ovarian = tested on: OVCAR-3 ovarian
COLO 205 colon = tested on: COLO 205 colon
NCI-H226 lung = tested on: NCI-H226 lung
SK-MEL-2 melanoma = tested on: SK-MEL-2 melanoma
SW-620 colon = tested on: SW-620 colon
NCI/ADR-RES ovarian = tested on: NCI/ADR-RES ovarian
RPMI-8226 leukemia = tested on: RPMI-8226 leukemia
OVCAR-4 ovarian = tested on: OVCAR-4 ovarian
SF-295 CNS = tested on: SF-295 CNS
CAKI-1 renal = tested on: CAKI-1 renal
SNB-19 CNS = tested on: SNB-19 CNS
SK-MEL-5 melanoma = tested on: SK-MEL-5 melanoma
K-562 leukemia = tested on: K-562 leukemia
UACC-62 melanoma = tested on: UACC-62 melanoma
BT-549 breast = tested on: BT-549 breast
OVCAR-5 ovarian = tested on: OVCAR-5 ovarian
SF-268 CNS = tested on: SF-268 CNS
UACC-257 melanoma = tested on: UACC-257 melanoma
MDA-MB-231 breast = tested on: MDA-MB-231 breast
HS 578T breast = tested on: HS 578T breast
SN12C renal = tested on: SN12C renal
MDA-MB-435 = tested on: MDA-MB-435
A549 NSCLC = tested on: A549 NSCLC
NCI-H522 lung = tested on: NCI-H522 lung
IGROV1 ovarian = tested on: IGROV1 ovarian
T-47D breast = tested on: T-47D breast
TK-10 renal = tested on: TK-10 renal
NCI-H23 lung = tested on: NCI-H23 lung
OVCAR-8 ovarian = tested on: OVCAR-8 ovarian
SR leukemia = tested on: SR leukemia
U251 CNS = tested on: U251 CNS
PC-3 prostate = tested on: PC-3 prostate
HCT-116 colon = tested on: HCT-116 colon
HCT-15 colon = tested on: HCT-15 colon
HOP-62 NSCLC = tested on: HOP-62 NSCLC
SK-OV-3 ovarian = tested on: SK-OV-3 ovarian
A498 renal = tested on: A498 renal
CCRF-CEM leukemia = tested on: CCRF-CEM leukemia
MALME-3M melanoma = tested on: MALME-3M melanoma
SNB-75 CNS = tested on: SNB-75 CNS
HCC-2998 colon = tested on: HCC-2998 colon
SK-MEL-28 melanoma = tested on: SK-MEL-28 melanoma
RXF 393 renal = tested on: RXF 393 renal
HT29 colon = tested on: HT29 colon

## O=C(/C=C/c1ccc(Cl)cc1)c1ccc(Cl)cc1Cl
SF-539 CNS
  GI50: 9.68 µM
  TGI: 17.9 µM
MOLT-4 leukemia
  GI50: 0.915 µM
  TGI: 2.12 µM
UO-31 renal
  GI50: 7.62 µM
  TGI: 14.4 µM
EKVX NSCLC
  GI50: 9.33 µM
  TGI: 19.7 µM
NCI-H460 lung
  GI50: 10.4 µM
  TGI: 24.8 µM
ACHN renal
  GI50: 0.213 µM
  TGI: 10.9 µM
LOX IMVI melanoma
  GI50: 1.15 µM
  TGI: 5.62 µM
786-0 renal
  GI50: 7.05 µM
  TGI: 15.8 µM
M14 melanoma
  GI50: 10.9 µM
  TGI: 24.2 µM
DU-145 prostate
  GI50: 7.72 µM
  TGI: 15.7 µM
KM12 colon
  GI50: 5.73 µM
  TGI: 13.8 µM
MCF7 breast
  GI50: 6.28 µM
  TGI: 23 µM
HOP-92 NSCLC
  GI50: 9.39 µM
  TGI: 19.4 µM
HL-60(TB) leukemia
  GI50: 7.25 µM
  TGI: 27.9 µM
OVCAR-3 ovarian
  GI50: 9.19 µM
  TGI: 18.4 µM
COLO 205 colon
  GI50: 12.1 µM
  TGI: 30.8 µM
NCI-H226 lung
  GI50: 9.41 µM
  TGI: 18.1 µM
SK-MEL-2 melanoma
  GI50: 9.55 µM
  TGI: 18.9 µM
SW-620 colon
  GI50: 1.88 µM
  TGI: 6.31 µM
NCI/ADR-RES ovarian
  GI50: 0.331 µM
  TGI: 15.5 µM
RPMI-8226 leukemia
  GI50: 1.42 µM
  TGI: 11 µM
OVCAR-4 ovarian
  GI50: 6.14 µM
  TGI: 14 µM
SF-295 CNS
  GI50: 10.6 µM
  TGI: 21.4 µM
CAKI-1 renal
  GI50: 8.22 µM
  TGI: 15.7 µM
SNB-19 CNS
  GI50: 13.3 µM
  TGI: 29.5 µM
SK-MEL-5 melanoma
  GI50: 4.89 µM
  TGI: 13.1 µM
K-562 leukemia
  GI50: 1.68 µM
  TGI: 14.2 µM
UACC-62 melanoma
  GI50: 1.28 µM
  TGI: 12.4 µM
BT-549 breast
  GI50: 7.44 µM
  TGI: 14.8 µM
OVCAR-5 ovarian
  GI50: 9.15 µM
  TGI: 18 µM
SF-268 CNS
  GI50: 10.1 µM
  TGI: 21.8 µM
UACC-257 melanoma
  GI50: 10.4 µM
  TGI: 18.5 µM
MDA-MB-231 breast
  GI50: 10.9 µM
  TGI: 22.1 µM
HS 578T breast
  GI50: 11.7 µM
  TGI: 25.9 µM
SN12C renal
  GI50: 9.96 µM
  TGI: 20.9 µM
MDA-MB-435
  GI50: 9.11 µM
  TGI: 24.3 µM
A549 NSCLC
  GI50: 8.63 µM
  TGI: 17.5 µM
NCI-H522 lung
  GI50: 8.15 µM
  TGI: 16.8 µM
IGROV1 ovarian
  GI50: 0.987 µM
  TGI: 14.6 µM
T-47D breast
  GI50: 3.25 µM
  TGI: 22.3 µM
TK-10 renal
  GI50: 7.42 µM
  TGI: 14 µM
NCI-H23 lung
  GI50: 4.55 µM
  TGI: 12.4 µM
OVCAR-8 ovarian
  GI50: 8.65 µM
  TGI: 21.5 µM
SR leukemia
  GI50: 2.31 µM
  TGI: 50 µM
U251 CNS
  GI50: 7.23 µM
  TGI: 14.1 µM
PC-3 prostate
  GI50: 11.2 µM
  TGI: 31.7 µM
HCT-116 colon
  GI50: 4.74 µM
  TGI: 33.5 µM
HCT-15 colon
  GI50: 6.4 µM
  TGI: 15.3 µM
HOP-62 NSCLC
  GI50: 10.9 µM
  TGI: 25.1 µM
SK-OV-3 ovarian
  GI50: 6.84 µM
  TGI: 14.5 µM

## O=C(Nc1nc2ccccc2s1)OCC(F)(F)F
SF-539 CNS
  GI50: > 100 µM
  TGI: > 100 µM
A498 renal
  GI50: > 100 µM
  TGI: > 100 µM
MOLT-4 leukemia
  GI50: > 100 µM
  TGI: > 100 µM
UO-31 renal
  GI50: 45.6 µM
  TGI: > 100 µM
NCI-H460 lung
  GI50: > 100 µM
  TGI: > 100 µM
ACHN renal
  GI50: > 100 µM
  TGI: > 100 µM
LOX IMVI melanoma
  GI50: > 100 µM
  TGI: > 100 µM
786-0 renal
  GI50: > 100 µM
  TGI: > 100 µM
M14 melanoma
  GI50: > 100 µM
  TGI: > 100 µM
DU-145 prostate
  GI50: > 100 µM
  TGI: > 100 µM
KM12 colon
  GI50: > 100 µM
  TGI: > 100 µM
MCF7 breast
  GI50: > 100 µM
  TGI: > 100 µM
HOP-92 NSCLC
  GI50: 41.2 µM
  TGI: > 100 µM
CCRF-CEM leukemia
  GI50: > 100 µM
  TGI: > 100 µM
MALME-3M melanoma
  GI50: > 100 µM
  TGI: > 100 µM
HL-60(TB) leukemia
  GI50: > 100 µM
  TGI: > 100 µM
OVCAR-3 ovarian
  GI50: > 100 µM
  TGI: > 100 µM
COLO 205 colon
  GI50: > 100 µM
  TGI: > 100 µM
NCI-H226 lung
  GI50: > 100 µM
  TGI: > 100 µM
SK-MEL-2 melanoma
  GI50: > 100 µM
  TGI: > 100 µM
SW-620 colon
  GI50: > 100 µM
  TGI: > 100 µM
NCI/ADR-RES ovarian
  GI50: > 100 µM
  TGI: > 100 µM
RPMI-8226 leukemia
  GI50: > 100 µM
  TGI: > 100 µM
OVCAR-4 ovarian
  GI50: > 100 µM
  TGI: > 100 µM
SF-295 CNS
  GI50: > 100 µM
  TGI: > 100 µM
CAKI-1 renal
  GI50: > 100 µM
  TGI: > 100 µM
SNB-75 CNS
  GI50: > 100 µM
  TGI: > 100 µM
SNB-19 CNS
  GI50: > 100 µM
  TGI: > 100 µM
SK-MEL-5 melanoma
  GI50: > 100 µM
  TGI: > 100 µM
K-562 leukemia
  GI50: > 100 µM
  TGI: > 100 µM
UACC-62 melanoma
  GI50: > 100 µM
  TGI: > 100 µM
BT-549 breast
  GI50: > 100 µM
  TGI: > 100 µM
OVCAR-5 ovarian
  GI50: > 100 µM
  TGI: > 100 µM
SF-268 CNS
  GI50: > 100 µM
  TGI: > 100 µM
UACC-257 melanoma
  GI50: > 100 µM
  TGI: > 100 µM
HCC-2998 colon
  GI50: > 100 µM
  TGI: > 100 µM
MDA-MB-231 breast
  GI50: > 100 µM
  TGI: > 100 µM
SK-MEL-28 melanoma
  GI50: > 100 µM
  TGI: > 100 µM
HS 578T breast
  GI50: > 100 µM
  TGI: > 100 µM
SN12C renal
  GI50: > 100 µM
  TGI: > 100 µM
MDA-MB-435
  GI50: > 100 µM
  TGI: > 100 µM
A549 NSCLC
  GI50: > 100 µM
  TGI: > 100 µM
NCI-H522 lung
  GI50: > 100 µM
  TGI: > 100 µM
IGROV1 ovarian
  GI50: > 100 µM
  TGI: > 100 µM
RXF 393 renal
  GI50: > 100 µM
  TGI: > 100 µM
T-47D breast
  GI50: > 100 µM
  TGI: > 100 µM
TK-10 renal
  GI50: > 100 µM
  TGI: > 100 µM
NCI-H23 lung
  GI50: > 100 µM
  TGI: > 100 µM
HT29 colon
  GI50: > 100 µM
  TGI: > 100 µM
OVCAR-8 ovarian
  GI50: > 100 µM
  TGI: > 100 µM
SR leukemia
  GI50: > 100 µM
  TGI: > 100 µM
U251 CNS
  GI50: > 100 µM
  TGI: > 100 µM
PC-3 prostate
  GI50: > 100 µM
  TGI: > 100 µM
HCT-116 colon
  GI50: > 100 µM
  TGI: > 100 µM
HCT-15 colon
  GI50: > 100 µM
  TGI: > 100 µM
HOP-62 NSCLC
  GI50: > 100 µM
  TGI: > 100 µM
SK-OV-3 ovarian
  GI50: > 100 µM
  TGI: > 100 µM
